These are literature values, as cited in US20240374627A1, “A PHARMACEUTICAL COMPOSITION COMPRISING COMBINATION OF SITAGLIPTIN AND EMPAGLIFLOZIN” (UNISON PHARMACEUTICALS PVT. LTD., priority 2021, published 2024).

For data set [1] the following is noted: healthy volunteers; Brand et al., Adv Ther 2012.

Like-named read-outs stand apart in the source and are kept apart here.

For `OC[C@H]1O[C@@H](c2ccc(Cl)c(Cc3ccc(O[C@H]4CCOC4)cc3)c2)[C@H](O)[C@@H](O)[C@@H]1O` [Empagliflozin, (1S)-1,5-anhydro-1-(4-chloro-3-{4-[(3S)-tetrahydrofuran-3-yloxy]benzyl}phenyl)-D-glucitol], the solubility result is, setting by setting: (acetonitrile) “slightly soluble”; (aqueous media between pH 1-7.4, European assessment report of Jardiance) “slightly soluble”; (ethanol) “slightly soluble”; (methanol) “sparingly soluble”; (toluene) “practically insoluble”; (water (pH 1-7.4)) “very slightly soluble”. Moreover, the “effect of coadministration on the pharmacokinetics of either drug” value in data set [1] is “without specifying any clinically relevant effect”.

`N[C@@H](CC(=O)N1CCn2c(nnc2C(F)(F)F)C1)Cc1cc(F)c(F)cc1F` [Sitagliptin, 7-[(3R)-3-amino-1-oxo-4-(2,4,5-trifluorophenyl)butyl]-5,6,7,8-tetrahydro-3-(trifluoromethyl)-1,2,4-triazolo[4,3-a]pyrazine phosphate (1:1) monohydrate]: the solubility entry reads like this: (N,N-dimethyl formamide) “soluble”; (acetone) “soluble”; (acetonitrile) “soluble”; (ethanol) “soluble”; (isopropanol) “insoluble”; (isopropyl acetate) “insoluble”. For the same molecule, the solubility entry is “slightly soluble” (methanol) and “soluble” (water). Moreover, the “effect of coadministration on the pharmacokinetics of either drug” value in data set [1] was “without specifying any clinically relevant effect”.
